One series deals with Plasmodium falciparum. Put plainly: Antiplasmodial activity against chloroquine-resistant blood stage of Plasmodium falciparum W2 infected in human RBC after 48 hrs by flow cytometric analysis. Format: functional, organism-based. The conditions noted are these: W2, 48 h.
For series [1], the system named is Plasmodium berghei. Put plainly: microbe, parasite or virus in culture. The conditions noted are these: Huh-7, Liver.
Description: Antiplasmodial activity against liver sporozoite stage of Plasmodium berghei expressing luciferase and GFP infected in human HuH7 cells assessed as inhibition of parasite development incubated for 1 hr prior to parasite infection measured after 48 hrs by Alamar blue assay
Series [2] in a line: Cytotoxicity against human HuH7 cells assessed as cell viability after 48 hrs by Alamar blue assay. The series is classed as cell-based, Huh-7.
Series [3] relates to Plasmodium berghei. Put plainly: Antiplasmodial activity against liver sporozoite stage of Plasmodium berghei ANKA expressing GFP infected in human HuH7 cells assessed as inhibition of parasite development after 24 hrs by qRT-PCR analysis. The series is classed as functional, organism-based. The conditions noted are these: Huh-7, Liver.

Our source for the IC50 and CC50 values is ChEMBL document CHEMBL2434892, “Flavones as isosteres of 4(1H)-quinolones: discovery of ligand efficient and dual stage antimalarial lead compounds” (Eur J Med Chem, 2013).

The structures appear in SMILES notation.

For the molecule `O=c1cc(-c2ccc(Oc3ccc(Cl)cc3)cc2)oc2ccc(Cl)cc12`, the IC50 with Plasmodium falciparum was greater than 25 µM.
On the same count and under the same terms, then `O=c1cc(-c2ccc(Oc3ccc(Cl)cc3)cc2)oc2cc(Cl)ccc12`, with 12.6 µM.
Turning to `Cc1ccc2c(=O)cc(-c3ccc(Oc4ccc(Cl)cc4)cc3)oc2c1`, the half-maximal inhibitory concentration (IC50) in the series on Plasmodium falciparum was 19.7 µM; in the series on Plasmodium berghei [1], 4.1 µM. The cytotoxic concentration (CC50) at 48 h in series [2] is greater than 50 µM.
Molecule `Cc1cc2oc(-c3ccc(Oc4ccc(Cl)cc4)cc3)cc(=O)c2cc1Cl` yielded a half-maximal inhibitory concentration (IC50) in the series with Plasmodium falciparum of 23.2 µM.
The same measure, in the same setting: with `Cc1cc2oc(-c3ccc(Oc4ccc(OC(F)(F)F)cc4)cc3)cc(=O)c2cc1Cl` the figure was greater than 25 µM; with `O=c1cc(-c2ccc(Oc3cccc(OC(F)(F)F)c3)cc2)oc2ccccc12`, 14.9 µM; with `Cc1cc2oc(-c3ccc(OCCCC(F)(F)F)cc3)cc(=O)c2cc1Cl`, 17.2 µM.
With `Cc1cc2oc(-c3ccc(-c4ccccc4)cc3)cc(=O)c2cc1Cl`, the IC50 amounted to 14 µM with Plasmodium falciparum and 8.5 µM in the series on Plasmodium berghei [1]. Moreover, the half-maximal cytotoxic concentration (CC50) at 48 h in series [2] is greater than 90 µM.
`O=c1c(Br)c(-c2ccc(-c3ccccc3)cc2)oc2cc(CBr)c(Cl)cc12`: in the series with Plasmodium falciparum, the midpoint of inhibition, the IC50, lay at 5.96 µM.
For `Cc1cc2oc(-c3ccc(-c4ccccc4)cc3)c(Br)c(=O)c2cc1Cl`, the concentration for half-maximal inhibition (IC50) in the series on Plasmodium falciparum was greater than 25 µM.
Still for that read-out and setting: with `O=c1cc(-c2ccc(-c3ccccc3)cc2)oc2ccccc12` the figure was greater than 25 µM; with `O=c1cc(-c2ccc(-c3ccc(Cl)cc3)cc2)oc2ccccc12`, greater than 10 µM; with `O=c1cc(-c2ccc(-c3ccc(F)cc3)cc2)oc2ccccc12`, greater than 25 µM.
In the case of `O=Cc1ccc(-c2ccc(-c3cc(=O)c4ccccc4o3)cc2)cc1`, the concentration for half-maximal inhibition (IC50) with Plasmodium falciparum is greater than 25 µM.
`Nc1ccc(-c2ccc(-c3cc(=O)c4ccccc4o3)cc2)cn1`: the concentration for half-maximal inhibition (IC50) in the series on Plasmodium falciparum was found to be 3.88 µM; in the series with Plasmodium berghei [1], 1.9 µM. Moreover, the CC50 at 48 h in series [2] was greater than 15 µM.
As for `O=c1cc(-c2ccc(-c3cnc4ccccc4c3)cc2)oc2ccccc12`, the midpoint of inhibition in the series with Plasmodium falciparum, the IC50, lay at 5.17 µM.
Turning to `O=c1cc(-c2ccc(Oc3ccc(Cl)cc3)cc2)oc2ccccc12`, the 50% inhibitory concentration (IC50) in the series on Plasmodium falciparum was determined as 21 µM; in the series on Plasmodium berghei [1], 6.2 µM. For the same molecule, the CC50 at 48 h in series [2] is greater than 180 µM.
Molecule `O=c1cc(-c2ccc(Br)cc2)oc2ccccc12` displayed an IC50 with Plasmodium falciparum greater than 25 µM.
For the molecule `O=c1c(-c2ccc(O)cc2)coc2cc(O)cc(O)c12` [GENISTEIN], the IC50 in the series with Plasmodium berghei [3] was found to be 20 µM.
